Results taken from article PMC8134453.
“Also recorded” adds a separate entry of the source. Read-outs that look alike come from different tables or passages of the source.

How the values were obtained:
Jack bean (JB) urease [1] = target: T1, Jack bean (JB) urease (Canavalia ensiformis, UniProt P07374); experiment: Urease inhibition, modified Berthelot spectrophotometric method; type: biochemical
T1 construct: purchased Sigma-Aldrich (USA)
Procedure: All used material and JB urease (EC 3.5.1.5) were purchased from Sigma–Aldrich (USA). Potassium phosphate buffer (PPB) solution with concentration 100 mM and pH = 7.4 was prepared in distilled water. […] The enzymatic reactions were performed in PPB solution which reach to the 985 μL by adding urea (850 μL) and the synthesized compound (100 μL, 0–10 mg/mL). Then, urease (15 μL) was added and the concentration of liberated ammonia was measured after 60 min. The corresponding concentration of ammonia was determined by addition of the incubated solution (100 μL) to the mixture of 500 μL of solution I (5.0 g phenol and 25.0 mg sodium nitroprusside in 500 mL water) and 500 μL of solution II (2.5 g sodium hydroxide and 4.2 mL sodium hypochlorite (5% chlorine) in 500 mL water) which was incubated at 37 °C for 30 min. The absorbance was obtained by measuring indophenols. The activity of uninhibited JB urease was considered as the control activity of 100%. The inhibition assays were conducted according to this formula: I (%) = [1 − (T/C)] × 100; where I (%) is the enzyme inhibition, T (test) is the absorbance of the analyzed compounds in the presence of urease solution, and C (control) is the absorbance of the solvent in the presence of urease solution. Data were expressed as mean ± […] and run in triplicate. […] Thiourea and hydroxyurea were used as the standard inhibitors for urease.

Jack bean (JB) urease [2] = target: T1, Jack bean (JB) urease; experiment: Urease kinetic study (Lineweaver–Burk plots); type: biochemical
Procedure: The inhibition mode and Ki value were determined by Lineweaver–Burk plots and secondary re-plotting of the mentioned plots, respectively.
All used material and JB urease (EC 3.5.1.5) were purchased from Sigma–Aldrich (USA). Potassium phosphate buffer (PPB) solution with concentration 100 mM and pH = 7.4 was prepared in distilled water. […] The enzymatic reactions were performed in PPB solution which reach to the 985 μL by adding urea (850 μL) and the synthesized compound (100 μL, 0–10 mg/mL). Then, urease (15 μL) was added and the concentration of liberated ammonia was measured after 60 min. The corresponding concentration of ammonia was determined by addition of the incubated solution (100 μL) to the mixture of 500 μL of solution I (5.0 g phenol and 25.0 mg sodium nitroprusside in 500 mL water) and 500 μL of solution II (2.5 g sodium hydroxide and 4.2 mL sodium hypochlorite (5% chlorine) in 500 mL water) which was incubated at 37 °C for 30 min. The absorbance was obtained by measuring indophenols. The activity of uninhibited JB urease was considered as the control activity of 100%. The inhibition assays were conducted according to this formula: I (%) = [1 − (T/C)] × 100; where I (%) is the enzyme inhibition, T (test) is the absorbance of the analyzed compounds in the presence of urease solution, and C (control) is the absorbance of the solvent in the presence of urease solution. Data were expressed as mean ± standard error (SD) and run in triplicate. […] Thiourea and hydroxyurea were used as the standard inhibitors for urease.

[3] = no reference given; cited from earlier work
[4] = Jack bean urease, mean ± standard error of the mean, at least three experiments, read-out: IC50 against urease

T1 sequence (P07374 whole entry, looked up): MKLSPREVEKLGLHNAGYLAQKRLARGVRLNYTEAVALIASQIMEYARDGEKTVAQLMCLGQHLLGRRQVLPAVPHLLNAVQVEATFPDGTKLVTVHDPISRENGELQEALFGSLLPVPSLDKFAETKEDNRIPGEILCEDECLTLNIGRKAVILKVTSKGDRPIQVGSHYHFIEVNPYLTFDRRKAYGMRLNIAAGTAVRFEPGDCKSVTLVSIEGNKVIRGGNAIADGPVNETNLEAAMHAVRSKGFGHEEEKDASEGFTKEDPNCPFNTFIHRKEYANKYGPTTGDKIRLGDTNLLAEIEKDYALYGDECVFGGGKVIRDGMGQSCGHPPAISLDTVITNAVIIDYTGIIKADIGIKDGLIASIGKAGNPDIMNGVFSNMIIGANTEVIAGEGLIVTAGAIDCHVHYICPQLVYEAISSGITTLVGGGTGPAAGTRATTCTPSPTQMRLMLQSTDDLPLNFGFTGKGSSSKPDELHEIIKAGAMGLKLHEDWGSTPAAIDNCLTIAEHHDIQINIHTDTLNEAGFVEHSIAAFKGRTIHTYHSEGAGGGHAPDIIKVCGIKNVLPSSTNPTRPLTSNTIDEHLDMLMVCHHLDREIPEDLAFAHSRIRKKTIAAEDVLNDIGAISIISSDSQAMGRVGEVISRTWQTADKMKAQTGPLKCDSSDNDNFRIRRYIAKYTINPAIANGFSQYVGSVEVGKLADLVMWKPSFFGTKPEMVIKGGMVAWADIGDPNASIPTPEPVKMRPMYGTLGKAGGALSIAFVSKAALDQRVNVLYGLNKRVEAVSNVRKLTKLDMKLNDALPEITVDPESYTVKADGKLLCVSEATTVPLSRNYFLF

Structure (SMILES) | IC50 (Jack bean (JB) urease [1]; [4]) [nM] | further results
CN1C(=O)C(=CN/N=C/c2ccccc2)C(=O)N(C)C1=O [Compound 7a, (E)-5-((2-benzylidenehydrazinyl)methylene)-1,3-dimethylpyrimidine-2,4,6(1H,3H,5H)-trione] | 4430 ± 210 | –
CN1C(=O)C(=CN/N=C/c2ccccc2O)C(=O)N(C)C1=O [Compound 7b, (E)-5-((2-(2-hydroxybenzylidene)hydrazinyl)methylene)-1,3-dimethylpyrimidine-2,4,6(1H,3H,5H)-trione] | 3090 ± 130 | –
CN1C(=O)C(=CN/N=C/c2ccc(O)cc2O)C(=O)N(C)C1=O [Compound 7c, (E)-5-((2-(2,4-dihydroxybenzylidene)hydrazinyl)methylene)-1,3-dimethylpyrimidine-2,4,6(1H,3H,5H)-trione] | 1200 ± 50 | –
COc1cc(/C=N/NC=C2C(=O)N(C)C(=O)N(C)C2=O)cc(OC)c1OC [Compound 7d, (E)-1,3-dimethyl-5-((2-(3,4,5-trimethoxybenzylidene)hydrazinyl)methylene)pyrimidine-2,4,6(1H,3H,5H)-trione] | 2530 ± 110 | –
CN1C(=O)C(=CN/N=C/c2cccc(Oc3ccccc3)c2)C(=O)N(C)C1=O [Compound 7e, (E)-1,3-dimethyl-5-((2-(3-phenoxybenzylidene)hydrazinyl)methylene)pyrimidine-2,4,6(1H,3H,5H)-trione] | 2850 ± 230 | –
CN1C(=O)C(=CN/N=C/c2ccc(Cl)cc2)C(=O)N(C)C1=O [Compound 7f, (E)-5-((2-(4-chlorobenzylidene)hydrazinyl)methylene)-1,3-dimethylpyrimidine-2,4,6(1H,3H,5H)-trione] | 3560 ± 160 | –
CN1C(=O)C(=CN/N=C/c2cccc(Br)c2)C(=O)N(C)C1=O [Compound 7g, (E)-5-((2-(3-bromobenzylidene)hydrazinyl)methylene)-1,3-dimethylpyrimidine-2,4,6(1H,3H,5H)-trione] | 3620 ± 190 | –
CN1C(=O)C(=CN/N=C/c2ccccc2[N+](=O)[O-])C(=O)N(C)C1=O [Compound 7h, (E)-1,3-dimethyl-5-((2-(2-nitrobenzylidene)hydrazinyl)methylene)pyrimidine-2,4,6(1H,3H,5H)-trione] | – | IC50 (Jack bean (JB) urease [1]): 610 ± 60 nM; activity fold superior to parent phenyl derivative 7a (Jack bean (JB) urease [1]; ratio of urease IC50 values): 7.2 fold; times more potent than thiourea (Jack bean (JB) urease [1]; ratio of urease IC50 values): 37.7 times; Ki (Jack bean (JB) urease [2]): 820 nM; inhibition mode (Jack bean (JB) urease [2]; Lineweaver–Burk plot): mixed-type inhibitor; also recorded: mix-mode inhibitor; melting point: 178 to 180 °C
CN1C(=O)C(=CN/N=C/c2ccc([N+](=O)[O-])cc2)C(=O)N(C)C1=O [Compound 7i, (E)-1,3-dimethyl-5-((2-(4-nitrobenzylidene)hydrazinyl)methylene)pyrimidine-2,4,6(1H,3H,5H)-trione] | 1310 ± 90 | decrease of inhibitory activity relative to 2-nitro derivative 7h (Jack bean (JB) urease [1]; urease IC50 compared with 7h): about two
CN1C(=O)C(=CN/N=C/c2cccc(Cl)c2Cl)C(=O)N(C)C1=O [Compound 7j, (E)-5-((2-(2,3-dichlorobenzylidene)hydrazinyl)methylene)-1,3-dimethylpyrimidine-2,4,6(1H,3H,5H)-trione] | 4520 ± 310 | –
CN1C(=O)C(=CN/N=C/c2cc([N+](=O)[O-])ccc2Cl)C(=O)N(C)C1=O [Compound 7k, (E)-5-((2-(2-chloro-5-nitrobenzylidene)hydrazinyl)methylene)-1,3-dimethylpyrimidine 2,4,6(1H,3H,5H)-trione] | 3940 ± 250 | –
CN1C(=O)C(=CN/N=C/c2cc(Cl)ccc2[N+](=O)[O-])C(=O)N(C)C1=O [Compound 7l, (E)-5-((2-(5-chloro-2-nitrobenzylidene)hydrazinyl)methylene)-1,3-dimethylpyrimidine-2,4,6(1H,3H,5H)-trione] | 1340 ± 120 | –
CN1C(=O)C(=CN/N=C/c2cccs2)C(=O)N(C)C1=O [Compound 7m, (E)-1,3-dimethyl-5-((2-(thiophen-2-ylmethylene)hydrazinyl)methylene)pyrimidine2,4,6(1H,3H,5H)-trione] | 860 ± 80 | –
CN1C(=O)C(=CN/N=C/c2ccc(Cl)s2)C(=O)N(C)C1=O [Compound 7n, (E)-5-((2-((5-chlorothiophen-2-yl)methylene)hydrazinyl)methylene)-1,3-dimethylpyrimidine-2,4,6(1H,3H,5H)-trione] | 4560 ± 180 | –
CN1C(=O)C(=CN/N=C/c2cccc3ccccc23)C(=O)N(C)C1=O [Compound 7o, (E)-1,3-dimethyl-5-((2-(naphthalen-1-ylmethylene)hydrazinyl)methylene)pyrimidine-2,4,6(1H,3H,5H)-trione] | – | IC50 (Jack bean (JB) urease [1]): 1940 ± 220 nM
NC(=O)NO [Hydroxyurea, reference compound] | 100000 ± 150 | experimental solubility [3]: 100 mg/mL
NC(N)=S [Thiourea, reference compound] | 23000 ± 1700 | –
